{"source": "patent US20150329896A1", "about": "“N-END RULE PROTEASE ACTIVITY […] AND USES THEREOF” (priority 2010, published 2015)", "system": "proteasome", "type": "cell-based", "note": "Peptide text beside a SMILES is read from it. * marks the point of attachment. Cbz = O=C(OCc1ccccc1)*", "data": [{"smiles": "CC(C)C[C@@H](C=O)NC(=O)[C@H](CC(C)C)NC(=O)[C@H](CC(C)C)NC(=O)OCc1ccccc1", "note": "[MG132] (Cbz-Leu-Leu-Leu-aldehyde)", "values": [{"measurement": "level of C-terminal (P9-luciferase) fragment produced by BoNT/A proteolysis", "value": "accumulated"}]}]}
